Data taken from patent publication US8785445B2 (Array BioPharma Inc., priority 2008, dated 2014).
Like-named read-outs stand apart in the source and are kept apart here.

Target: T1, human DP2 (Homo sapiens, UniProt Q9Y5Y4)
T1 construct: expressed in transfected cells; membranes prepared
T1 sequence (Q9Y5Y4 1-395): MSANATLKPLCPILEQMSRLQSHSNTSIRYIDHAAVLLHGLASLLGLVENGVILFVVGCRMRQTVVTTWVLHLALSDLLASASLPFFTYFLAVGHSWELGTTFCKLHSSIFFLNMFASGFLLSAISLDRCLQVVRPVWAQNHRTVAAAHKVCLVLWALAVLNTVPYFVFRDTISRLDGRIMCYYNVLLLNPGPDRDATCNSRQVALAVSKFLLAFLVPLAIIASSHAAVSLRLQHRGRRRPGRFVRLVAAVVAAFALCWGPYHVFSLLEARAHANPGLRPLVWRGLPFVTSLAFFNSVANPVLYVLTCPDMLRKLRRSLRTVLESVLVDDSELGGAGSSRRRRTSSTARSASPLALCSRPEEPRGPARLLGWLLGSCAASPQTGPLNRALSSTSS
Assay: DP-2 binding inhibition assay (3H-PGD2, membranes of DP2-expressing K562 cells)
Procedure: The coding sequence of human DP2 was introduced into the human Leukemic cell line K562 by electroporation and stable clones expressing DP2 were obtained by limiting dilution followed by cell surface staining with a rat monoclonal antibody specific for human DP2. Membranes were prepared from one of these DP2 expressing clones and used to determine the ability of the compounds of the present invention to inhibit binding of prostaglandin D2 (PGD2) to its receptor DP2 in the presence of one or more of the following serum protein concentrations, 0.1% BSA, 1% HSA or 4% HSA, by the following procedure. […] After incubation for 60 minutes at room temperature, the assay was transferred to a filtration plate (#MAFB; Millipore Corporation, Bedford, Mass.), and washed three times with binding buffer. Radioactivity was measured by a scintillation counter (TopCount; PerkinElmer Life Sciences, Boston, Mass.). Nonspecific binding was determined by incubations in the presence of 1 μM unlabeled PGD2 or 5 μM of a known DP2 antagonist. IC50 values for inhibition of binding were determined for each compound tested from the inflexion point of a standard 4-parameter logistical curve fitted to the values obtained.

[1] = 4% HSA, read-out: EC50 (nM) 4% HSA
[2] = 0.1% BSA, read-out: EC50 (nM) 0.1% BSA

Compound | EC50 [1] | EC50 [2]
O=C(Nc1ccc2ccc(Cl)cc2n1)c1ccc(Oc2cc3c(cc2Cl)C(C(=O)O)CCO3)cc1 (centres unmarked) [Example 17, 6-Chloro-7-(4-(7-chloroquinolin-2-ylcarbamoyl)phenoxy)chroman-4-carboxylic acid] | 178 nM | –
O=C(Nc1ccc2cc(Cl)ccc2n1)c1ccc(Oc2c(Cl)cc3c(c2Cl)OCCC3C(=O)O)cc1 (centres unmarked) [Example 144, Sodium 6,8-dichloro-7-(4-(6-chloroquinolin-2-ylcarbamoyl)phenoxy)chroman-4-carboxylate] | 299 nM | –
O=C(Nc1ccc(-c2cccc(Cl)c2)nn1)c1ccc(Oc2cc3c(cc2Cl)C(C(=O)O)CCO3)cc1 (centres unmarked) [Example 97, 6-Chloro-7-(4-(6-(3-chlorophenyl)pyridazin-3-ylcarbamoyl)phenoxy)chroman-4-carboxylic acid] | 203 nM | –
N#Cc1cc2c(cc1Oc1ccc(C(=O)Nc3cccc(-c4ccc(Cl)cc4)n3)cc1)OCCC2C(=O)O (centres unmarked) [Example 51, 7-(4-(6-(4-Chlorophenyl)pyridin-2-ylcarbamoyl)phenoxy)-6-cyanochroman-4-carboxylic acid] | 51.3 nM | –
Cc1ccc(-c2cccc(NC(=O)c3ccc(Oc4cc5c(cc4C#N)C(C(=O)O)CCO5)cc3)n2)cc1C (centres unmarked) [Example 13, 6-Cyano-7-(4-(6-(3,4-dimethylphenyl)pyridin-2-ylcarbamoyl)phenoxy)chroman-4-carboxylic acid] | 45.1 nM | –
O=C(NCCc1cccn1-c1ccc(C(F)(F)F)cc1)c1ccc(Oc2cc3c(cc2Cl)C(C(=O)O)CCO3)cc1 (centres unmarked) [Example 212, 6-chloro-7-(4-(2-(1-(4-(trifluoromethyl)phenyl)-1H-pyrrol-2-yl)ethylcarbamoyl)phenoxy) chroman-4-carboxylic acid] | 3010 nM | –
O=C(Nc1cccc(-c2ccc(Cl)cc2Cl)n1)c1ccc(Oc2cc3c(cc2Cl)C(C(=O)O)CCO3)cc1 (centres unmarked) [Example 103, Sodium 6-chloro-7-(4-(6-(2,4-dichlorophenyl)pyridin-2-ylcarbamoyl)phenoxy)chroman-4-carboxylate] | 57.1 nM | –
Cc1nc2ccc(NC(=O)c3ccc(Oc4cc5c(cc4C#N)C(C(=O)O)CCO5)cc3)cc2s1 (centres unmarked) [Example 189, 6-cyano-7-(4-(2-methylbenzo[d]thiazol-6-ylcarbamoyl)phenoxy) chroman-4-carboxylic acid] | – | 43.3 nM
N#Cc1cc2c(cc1Oc1ccc(C(=O)NCCc3ccc(C(F)(F)F)nc3)cc1)OCCC2C(=O)O (centres unmarked) [Example 12, 6-Cyano-7-(4-(2-(6-(trifluoromethyl)pyridin-3-yl)ethylcarbamoyl)phenoxy)chroman-4-carboxylic acid] | 667 nM | –
O=C(Nc1nc(-c2cccc(Cl)c2)cs1)c1ccc(Oc2cc3c(cc2Cl)C(C(=O)O)CCO3)cc1 (centres unmarked) [Example 157, 6-chloro-7-(4-(4-(3-chlorophenyl)thiazol-2-ylcarbamoyl)phenoxy)chroman-4-carboxylic acid] | 16.6 nM | –
O=C(Nc1cc(-c2ccc(Cl)cc2)ccn1)c1ccc(Oc2cc3c(cc2Cl)C(C(=O)O)CCO3)cc1 (centres unmarked) [Example 120, 6-Chloro-7-(4-(4-(4-chlorophenyl)pyridin-2-ylcarbamoyl)phenoxy)chroman-4-carboxylic acid] | 2730 nM | –
O=C(NC1CCN(c2cccc(C(F)(F)F)n2)CC1)c1ccc(Oc2cc3c(cc2Cl)C(C(=O)O)CCO3)cc1 (centres unmarked) [Example 211] | 421 nM | –
COc1ccc(CCNC(=O)c2ccc(Oc3cc4c(cc3Cl)C(C(=O)O)CCO4)cc2)cn1 (centres unmarked) [Example 217, 6-chloro-7-(4-(2-(6-methoxypyridin-3-yl)ethylcarbamoyl)phenoxy) chroman-4-carboxylic acid] | 1370 nM | –
O=C(Nc1ccc(-c2ccc(Cl)c(F)c2)nn1)c1ccc(Oc2cc3c(cc2Cl)C(C(=O)O)CCO3)cc1 (centres unmarked) [Example 67, Sodium 6-chloro-7-(4-(6-(4-chloro-3-fluorophenyl)pyridazin-3-ylcarbamoyl)phenoxy)chroman-4-carboxylate] | 203 nM | –
Cc1cc(NC(=O)c2ccc(Oc3cc4c(cc3Cl)C(C(=O)O)CCO4)cc2)nc(-c2ccc(C(F)(F)F)cc2)n1 (centres unmarked) [Example 102, Sodium 6-chloro-7-(4-(6-methyl-2-(4-(trifluoromethyl)phenyl)pyrimidin-4-ylcarbamoyl)phenoxy)chroman-4-carboxylate] | 21.2 nM | –
Cc1cccc(-c2cccc(NC(=O)c3ccc(Oc4cc5c(cc4C#N)C(C(=O)O)CCO5)cc3)n2)c1C (centres unmarked) [Example 40, 6-Cyano-7-(4-(6-(2,3-dimethylphenyl)pyridin-2-ylcarbamoyl)-phenoxy)-chroman-4-carboxylic acid] | 120 nM | –

Compound | EC50 [1] | EC50 [2]
O=C(Nc1cccc(-c2ccnc(C(F)(F)F)c2)n1)c1ccc(Oc2cc3c(cc2Cl)C(C(=O)O)CCO3)cc1 (centres unmarked) [Example 113, 6-Chloro-7-(4-(2′-(trifluoromethyl)-2,4′-bipyridin-6-ylcarbamoyl)phenoxy)chroman-4-carboxylic acid] | 452 nM | –
O=C(Nc1cccc(-c2ccc(Cl)cc2F)n1)c1ccc(Oc2cc3c(cc2Cl)C(C(=O)O)CCO3)cc1 (centres unmarked) [Example 87, 6-chloro-7-(4-(6-(4-chloro-2-fluorophenyl)pyridin-2-ylcarbamoyl)phenoxy)chroman-4-carboxylic acid] | 41.4 nM | –
O=C(Nc1ccc(-c2ccccc2Cl)nc1)c1ccc(Oc2cc3c(cc2Cl)C(C(=O)O)CCO3)cc1 (centres unmarked) [Example 125, 6-Chloro-7-(4-(6-(2-chlorophenyl)pyridin-3-ylcarbamoyl)phenoxy)chroman-4-carboxylic acid] | 627 nM | –
O=C(Nc1ccc(-c2ccc(C(F)(F)F)cc2)nn1)c1ccc(Oc2cc3c(cc2Cl)C(C(=O)O)CCO3)cc1 (centres unmarked) [Example 98, Sodium 6-chloro-7-(4-(6-(4-(trifluoromethyl)phenyl)pyridazin-3-ylcarbamoyl)phenoxy)chroman-4-carboxylate] | 112 nM | 17.9 nM
O=C(Nc1cnc2ccc(Cl)cc2n1)c1ccc(Oc2cc3c(cc2Cl)C(C(=O)O)CCO3)cc1 (centres unmarked) [Example 20, 6-Chloro-7-(4-(7-chloroquinoxalin-2-ylcarbamoyl)phenoxy)chroman-4-carboxylic acid] | 255 nM | –
O=C(Nc1cccc(-c2ccc(C(F)(F)F)cc2)n1)c1ccc(Oc2cc3c(cc2Cl)C(C(=O)O)CCO3)cc1 (centres unmarked) [Example 110, 6-Chloro-7-(4-(6-(4-(trifluoromethyl)phenyl)pyridin-2-ylcarbamoyl)phenoxy)chroman-4-carboxylic acid] | 25.2 nM | –
O=C(Nc1ccn(-c2ccc(F)c(F)c2)n1)c1ccc(Oc2cc3c(cc2Cl)C(C(=O)O)CCO3)cc1 (centres unmarked) [Example 166, 6-chloro-7-(4-(1-(3,4-difluorophenyl)-1H-pyrazol-3-ylcarbamoyl)phenoxy)chroman-4-carboxylic acid] | 85.1 nM | –
O=C(Nc1cccc(-c2cccc(Cl)c2)n1)c1ccc(Oc2cc3c(cc2Cl)C(C(=O)O)CCO3)cc1 (centres unmarked) [Example 34, 6-Chloro-7-(4-(6-(3-chlorophenyl)pyridin-2-ylcarbamoyl)phenoxy)chroman-4-carboxylic acid] | 241 nM | –
O=C(Nc1ncc(-c2cccc(Cl)c2)cn1)c1ccc(Oc2cc3c(cc2Cl)C(C(=O)O)CCO3)cc1 (centres unmarked) [Example 134, 6-Chloro-7-(4-(5-(3-chlorophenyl)pyrimidin-2-ylcarbamoyl)phenoxy)chroman-4-carboxylic acid] | 426 nM | –
O=C(Nc1cnc(-c2cccc(Cl)c2)nc1)c1ccc(Oc2cc3c(cc2Cl)C(C(=O)O)CCO3)cc1 (centres unmarked) [Example 135, 6-Chloro-7-(4-(2-(3-chlorophenyl)pyrimidin-5-ylcarbamoyl)phenoxy)chroman-4-carboxylic acid] | 313 nM | –
O=C(Nc1nccc(-c2cccc(C(F)(F)F)c2)n1)c1ccc(Oc2cc3c(cc2Cl)C(C(=O)O)CCO3)cc1 (centres unmarked) [Example 131, 6-Chloro-7-(4-(4-(3-(trifluoromethyl)phenyl)pyrimidin-2-ylcarbamoyl)phenoxy)chroman-4-carboxylic acid] | 128 nM | –
O=C(Nc1cccc(-c2ccc(Cl)cc2)n1)c1ccc(Oc2c(Cl)cc3c(c2Cl)OCCC3C(=O)O)cc1 (centres unmarked) [Example 143, Sodium 6,8-dichloro-7-(4-(6-(4-chlorophenyl)pyridin-2-ylcarbamoyl)phenoxy)-chroman-4-carboxylate] | 83.4 nM | –
Cc1nsc2ccc(NC(=O)c3ccc(Oc4cc5c(cc4C#N)C(C(=O)O)CCO5)cc3)cc12 (centres unmarked) [Example 190, 6-cyano-7-(4-(3-methylbenzo[d]isothiazol-5-ylcarbamoyl)phenoxy) chroman-4-carboxylic acid] | – | 49.3 nM
Cc1cccc2ccc(NC(=O)c3ccc(Oc4cc5c(cc4Cl)C(C(=O)O)CCO5)cc3)nc12 (centres unmarked) [Example 24, 6-Chloro-7-(4-(8-methylquinolin-2-ylcarbamoyl)phenoxy)chroman-4-carboxylic acid] | 764 nM | –
O=C(Nc1ccc2cc(C(F)(F)F)ccc2n1)c1ccc(Oc2cc3c(cc2Cl)C(C(=O)O)CCO3)cc1 (centres unmarked) [Example 16, 6-Chloro-7-(4-(6-(trifluoromethyl)quinolin-2-ylcarbamoyl)phenoxy)chroman-4-carboxylic acid] | 142 nM | –
